Like-named read-outs stand apart in the source and are kept apart here.
Test system: southern armyworm (Spodoptera eridania) 3rd-instar larvae
Experiment: Laboratory bioassay with southern armyworm larvae on dip-treated lima bean leaves
Format: in vivo
Conditions: foliar, 120 h, read-out: % Mortality Observed
Source text: Serial dilutions of technical grade insecticides were made in 1:1 acetone:water diluent. Lima bean leaves were dipped into treatment solutions and allowed to air-dry. A single treated leaf was placed topside-up onto water-moistened filter paper in plastic Petri dishes, and then seven 3rd-instar southern armyworm (Spodoptera eridania) larvae were placed onto each leaf. Dishes were covered with a plastic lid to contain larvae. Each treatment was replicated 4 times (1 replicate=1 Petri dish). Following treatment application, infested Petri dishes were held in the laboratory under fluorescent lighting at 26° C. Numbers of live and dead larvae were counted in each dish at 5 days after treatment (DAT), and percent mortality was calculated for each treatment.
To determine if the insecticidal mixture was synergistic, Limpel's formula was used:
E=Expected % mortality of the mixture X=% mortality of compound X, as measured independently Y=% mortality of compound Y, as measured independently
Synergism was evident if the % observed mortality for the mixture was greater than the % expected mortality.

| Compound | mortality at 0.6 ppm (single insecticide, dose concentration 0.6 ppm, leaf dip, 5 DAT, 3rd-instar larvae) | mortality at 1 ppm (single insecticide, dose concentration 1.0 ppm, leaf dip, 5 DAT, 3rd-instar larvae) | mortality at 0.6 ppm |
| --- | --- | --- | --- |
| N#Cc1ccc(CC(=NNC(=O)Nc2ccc(OC(F)(F)F)cc2)c2cccc(C(F)(F)F)c2)cc1 [Metaflumizone, metaflumizone] | 0% | 7% | – |
| FC(F)(F)c1ccc(OCCCOc2c(Cl)cc(OCC=C(Cl)Cl)cc2Cl)nc1 [Pyridalyl, 2,6-dichloro-4-(3,3-dichloroallyloxy)phenyl 3-[5-(trifluoromethyl)-2-pyridyloxy]propyl ether] | – | – | 10% |

From patent US20080261812A1, “Pesticidal Mixtures” (BASF SE, priority 2005, published 2008)
